Data set [1] relates to X31 strain of IAV. Put plainly: Uncoating after endocytosis and fusion at LEs (ammonium chloride block and washout, drugs added 60 min post-uptake). In kind it is cell-based, Influenza A X31 virus strain (H3N2). The conditions noted are these: drug added 60 min post-uptake, kept during 60 min uncoating.
The subject of data set [2] is X31 strain of IAV. Nature of the data set: Acid-bypass uncoating assay (fusion at the plasma membrane). In kind it is cell-based, Influenza A X31 virus strain (H3N2). The note with it: for uncoating blocked/decreased by % following PM bypass: percent reduction of uncoating; for block of uncoating by type II myosin inhibitors: after acid-bypass at the PM (context).
Data set [3] concerns the target dynein.

Residues, ends and D or L forms follow the SMILES beside them. *: point of attachment. Cbz = O=C(OCc1ccccc1)*

Turning to `CC(Nc1nc(N2CCCC2)nc2ccccc12)c1ccccc1` (stereo not drawn) [importazole], the “effect on uncoating when IAV fuses at the LEs” value in data set [1] was “no significant effect”.
On to `COC(=O)Nc1nc2ccc(C(=O)c3cccs3)cc2[nH]1` [nocodazole], for which the “uncoating blocked/decreased by % following PM bypass” value in data set [2] turned out to be 35%.
In the case of `CC(C)C[C@@H](C=O)NC(=O)[C@H](CC(C)C)NC(=O)[C@H](CC(C)C)NC(=O)OCc1ccccc1` [MG132] (Cbz-Leu-Leu-Leu-aldehyde), in data set [1], the “effect on uncoating when IAV fuses at the LEs” value was “no significant effect”.
As to `C=C1[C@@H](C)[C@H]2[C@H](Cc3ccccc3)NC(=O)[C@]23[C@H](OC(C)=O)/C=C/[C@@](C)(O)C(=O)[C@@H](C)C/C=C/[C@H]3[C@@H]1O` [cytochalasin D], the “uncoating blocked/decreased by % following PM bypass” value in data set [2] turned out to be 83%.
In the case of `Cc1ccc2c(c1)C(=O)C1(O)CCN(c3ccccc3)C1=N2` (stereo not drawn) [blebbistatin], the “block of uncoating by type II myosin inhibitors” value in data set [2] is given as “more than half”.
On to `N#CC(=C(O)c1ccc(Cl)cc1Cl)c1nc2cc(Cl)ccc2c(=O)[nH]1` [ciliobrevin D], for which, in data set [2] (remaining uncoating relative to control, siRNA experiments in A549 cells), the “uncoating following acid-bypass at the PM, reduced to % of control” value was 62%.
Consider `O=S(=O)(c1cccc2c(Cl)cccc12)N1CCCNCC1` [ML-9], for which the “block of uncoating by type II myosin inhibitors” value in data set [2] is listed as “more than half”.

B1: HDAC6 (Dbm), mouse HDAC6 without the dynein-binding domain (del437-481), expressed in rescued HDAC6 KO MEFs (protein)
chain: MTSTGQDSSTRQRKSRHNPQSPLQESSATLKRGGKKCAVPHSSPNLAEVKKKGKMKKLSQPAEEDLVVGLQGLDLNPETRVPVGTGLVFDEQLNDFHCLWDDSFPESPERLHAIREQLILEGLLGRCVSFQARFAEKEELMLVHSLEYIDLMETTQYMNEGELRVLAETYDSVYLHPNSYSCACLATGSVLRLVDALMGAEIRNGMAVIRPPGHHAQHNLMDGYCMFNHLAVAARYAQKKHRIQRVLIVDWDVHHGQGTQFIFDQDPSVLYFSIHRYEHGRFWPHLKASNWSTIGFGQGQGYTINVPWNQTGMRDADYIAAFLHILLPVASEFQPQLVLVAAGFDALHGDPKGEMAATPAGFAHLTHLLMGLAGGKLILSLEGGYNLRALAKGVSASLHTLLGDPCPMLESCVVPCASAQTSIYCTLEALEPFWEVLVYDEKMMSHCNLWDNHHPETPQRILRIMCHLEEVGLAARCLILPARPALDSELLTCHSAEYVEHLRTTEKMKTRDLHREGANFDSIYICPSTFACAKLATGAACRLVEAVLSGEVLNGIAVVRPPGHHAEPNAACGFCFFNSVAVAARHAQIIAGRALRILIVDWDVHHGNGTQHIFEDDPSVLYVSLHRYDRGTFFPMGDEGASSQVGRDAGIGFTVNVPWNGPRMGDADYLAAWHRLVLPIAYEFNPELVLISAGFDAAQGDPLGGCQVTPEGYAHLTHLLMGLAGGRIILILEGGYNLASISESMAACTHSLLGDPPPQLTLLRPPQSGALVSISEVIQVHRKYWRSLRLMKMEDKEECSSSRLVIKKLPPTASPVSAKEMTTPKGKVPEESVRKTIAALPGKESTLGQAKSKMAKAVLAQGQSSEQAAKGTTLDLATSKETVGGATTDLWASAAAPENFPNQTTSVEALGETEPTPPASHTNKQTTGASPLQGVTAQQSLQLGVLSTLELSREAEEAHDSEEGLLGEAAGGQDMNSLMLTQGFGDFNTQDVFYAVTPLSWCPHLMAVCPIPAAGLDVSQPCKTCGTVQENWVCLTCYQVYCSRYVNAHMVCHHEASEHPLVLSCVDLSTWCYVCQAYVHHEDLQDVKNAAHQNKFGEDMPHSH
Take B1: in data set [3], the “uncoating using PM bypass, relative to WT MEFs” value is “uncoating in the HDAC6 (Db^m) cells was reduced to 58%% of WT MEFs” and the “uncoating when the virus was allowed to fuse at LEs, compared to WT MEFs” value is “uncoating was reduced to 67% in HDAC6 (Db^m) cells compared to WT MEFs”.
